Assay results taken from ChEMBL document CHEMBL2434902, “A new strategy to improve the metabolic stability of lactone: discovery of (20S,21S)-21-fluorocamptothecins as novel, hydrolytically stable topoisomerase I inhibitors” (J Med Chem, 2013).
Calls of active or inactive are those of the source. No cut-off for these calls is given here.

Assays:
A549 [1] = test: Cytotoxicity against human A549 cells after 72 hrs by MTT assay; type: functional, cell-based; details: A549, 72 h
HCT-116 = test: Cytotoxicity against human HCT116 cells after 72 hrs by MTT assay; type: functional, cell-based; details: HCT-116, 72 h
[2] = target: T1, DNA topoisomerase 1 (Homo sapiens) (UniProt P11387); test: Inhibition of topoisomerase1 (unknown origin)-mediated supercoiled DNA relaxation at 100 uM after 15 mins by SDS-PAGE analysis
T1 sequence (whole entry): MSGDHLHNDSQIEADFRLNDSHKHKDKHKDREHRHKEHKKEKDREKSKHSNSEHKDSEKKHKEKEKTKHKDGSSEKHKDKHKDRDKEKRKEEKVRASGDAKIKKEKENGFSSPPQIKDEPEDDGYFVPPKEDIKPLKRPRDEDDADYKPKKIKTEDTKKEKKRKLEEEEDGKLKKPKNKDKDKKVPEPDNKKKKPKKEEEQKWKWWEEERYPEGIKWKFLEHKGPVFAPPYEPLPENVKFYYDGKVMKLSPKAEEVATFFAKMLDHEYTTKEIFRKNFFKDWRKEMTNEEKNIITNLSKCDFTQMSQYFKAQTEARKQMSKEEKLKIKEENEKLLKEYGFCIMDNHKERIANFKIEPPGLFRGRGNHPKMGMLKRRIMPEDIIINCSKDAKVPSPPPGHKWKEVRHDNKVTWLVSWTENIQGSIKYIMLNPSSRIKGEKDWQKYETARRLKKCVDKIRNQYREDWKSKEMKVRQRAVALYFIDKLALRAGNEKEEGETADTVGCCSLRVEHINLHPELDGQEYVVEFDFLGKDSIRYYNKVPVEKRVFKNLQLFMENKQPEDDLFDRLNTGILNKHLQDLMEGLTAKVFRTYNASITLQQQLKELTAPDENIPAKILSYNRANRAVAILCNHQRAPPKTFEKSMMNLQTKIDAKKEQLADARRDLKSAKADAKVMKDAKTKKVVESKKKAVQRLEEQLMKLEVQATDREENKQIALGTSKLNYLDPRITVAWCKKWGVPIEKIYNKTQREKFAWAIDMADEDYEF

MDA-MB-435 = test: Cytotoxicity against human MDA-MB-435 cells after 72 hrs by MTT assay; type: functional, cell-based; details: MDA-MB-435, 72 h
[3] = target: DNA topoisomerase 2-alpha (Homo sapiens) (UniProt P11388); test: Inhibition of topoisomerase2 alpha (unknown origin)-mediated supercoiled DNA relaxation at 100 uM after 30 mins by SDS-PAGE analysis
A549 [4] = test: Cell cycle arrest in human A549 cells assessed as decrease in G0/G1 phase at 10 uM after 36 hrs by propidium iodide staining-based flow cytometry; type: functional
A549 [5] = test: Induction of apoptosis in human A549 cells assessed as apoptotic cells at 0.5 uM after 48 hrs by AnnexinV-FITC/propidium iodide staining-based flow cytometry (reference value: 5.23%); type: functional
[6] = target: T1, DNA topoisomerase 1 (Homo sapiens); test: Inhibition of topoisomerase1 (unknown origin)-mediated DNA cleavage at 100 uM after 15 mins by SDS-PAGE analysis
Mus musculus = test: Toxicity in BALB/C nude mouse xenografted with human A549 cells assessed as weight loss at 2 mg/kg, ip after 5 days relative to vehicle-treated control; type: organism-based; set-up: dose 2 mg/kg, route intraperitoneal; details: in vivo, 120 h
A549 [7] = test: Cell cycle arrest in human A549 cells assessed as accumulation at S phase at 10 uM after 36 hrs by propidium iodide staining-based flow cytometry; type: functional
[8] = Stability of the compound in PBS buffer at pH 7.4; type: physicochemical
A549 [9] = test: Antitumor activity against human A549 cells xenografted in BALB/C nude mouse assessed as tumor growth inhibition at 4 mg/kg, ip administered for 5 days measured after day 30 to 33 relative to vehicle-treated control; type: functional; details: route intraperitoneal, read-out: TGI
A549 [10] = test: Induction of apoptosis in human A549 cells assessed as small, round floating cells at 10 uM after 48 hrs by immunostaining relative to control; type: functional, cell-based
A549 [11] = test: Antitumor activity against human A549 cells xenografted in BALB/C nude mouse assessed as tumor growth inhibition at 2 mg/kg, ip administered for 5 days measured after day 30 to 33 relative to vehicle-treated control; type: functional; details: route intraperitoneal, read-out: TGI
A549 [12] = test: Antitumor activity against human A549 cells xenografted in ip dosed BALB/C nude mouse assessed as tumor growth inhibition administered for 5 days measured after day 30 to 33 relative to vehicle-treated control; type: functional, organism-based
[13] = Stability of the compound in PBS buffer at pH 7.4 assessed as compound remaining after 6 hrs by HPLC method; type: physicochemical; details: read-out: Stability
A549 [14] = test: Antitumor activity against human A549 cells xenografted in BALB/C nude mouse assessed as tumor growth inhibition at 0.5 mg/kg, ip administered for 5 days measured after day 30 to 33 relative to vehicle-treated control; type: functional, organism-based; set-up: dose 0.5 mg/kg

DNA topoisomerase 2-alpha (Homo sapiens), sequence (P11388 whole entry): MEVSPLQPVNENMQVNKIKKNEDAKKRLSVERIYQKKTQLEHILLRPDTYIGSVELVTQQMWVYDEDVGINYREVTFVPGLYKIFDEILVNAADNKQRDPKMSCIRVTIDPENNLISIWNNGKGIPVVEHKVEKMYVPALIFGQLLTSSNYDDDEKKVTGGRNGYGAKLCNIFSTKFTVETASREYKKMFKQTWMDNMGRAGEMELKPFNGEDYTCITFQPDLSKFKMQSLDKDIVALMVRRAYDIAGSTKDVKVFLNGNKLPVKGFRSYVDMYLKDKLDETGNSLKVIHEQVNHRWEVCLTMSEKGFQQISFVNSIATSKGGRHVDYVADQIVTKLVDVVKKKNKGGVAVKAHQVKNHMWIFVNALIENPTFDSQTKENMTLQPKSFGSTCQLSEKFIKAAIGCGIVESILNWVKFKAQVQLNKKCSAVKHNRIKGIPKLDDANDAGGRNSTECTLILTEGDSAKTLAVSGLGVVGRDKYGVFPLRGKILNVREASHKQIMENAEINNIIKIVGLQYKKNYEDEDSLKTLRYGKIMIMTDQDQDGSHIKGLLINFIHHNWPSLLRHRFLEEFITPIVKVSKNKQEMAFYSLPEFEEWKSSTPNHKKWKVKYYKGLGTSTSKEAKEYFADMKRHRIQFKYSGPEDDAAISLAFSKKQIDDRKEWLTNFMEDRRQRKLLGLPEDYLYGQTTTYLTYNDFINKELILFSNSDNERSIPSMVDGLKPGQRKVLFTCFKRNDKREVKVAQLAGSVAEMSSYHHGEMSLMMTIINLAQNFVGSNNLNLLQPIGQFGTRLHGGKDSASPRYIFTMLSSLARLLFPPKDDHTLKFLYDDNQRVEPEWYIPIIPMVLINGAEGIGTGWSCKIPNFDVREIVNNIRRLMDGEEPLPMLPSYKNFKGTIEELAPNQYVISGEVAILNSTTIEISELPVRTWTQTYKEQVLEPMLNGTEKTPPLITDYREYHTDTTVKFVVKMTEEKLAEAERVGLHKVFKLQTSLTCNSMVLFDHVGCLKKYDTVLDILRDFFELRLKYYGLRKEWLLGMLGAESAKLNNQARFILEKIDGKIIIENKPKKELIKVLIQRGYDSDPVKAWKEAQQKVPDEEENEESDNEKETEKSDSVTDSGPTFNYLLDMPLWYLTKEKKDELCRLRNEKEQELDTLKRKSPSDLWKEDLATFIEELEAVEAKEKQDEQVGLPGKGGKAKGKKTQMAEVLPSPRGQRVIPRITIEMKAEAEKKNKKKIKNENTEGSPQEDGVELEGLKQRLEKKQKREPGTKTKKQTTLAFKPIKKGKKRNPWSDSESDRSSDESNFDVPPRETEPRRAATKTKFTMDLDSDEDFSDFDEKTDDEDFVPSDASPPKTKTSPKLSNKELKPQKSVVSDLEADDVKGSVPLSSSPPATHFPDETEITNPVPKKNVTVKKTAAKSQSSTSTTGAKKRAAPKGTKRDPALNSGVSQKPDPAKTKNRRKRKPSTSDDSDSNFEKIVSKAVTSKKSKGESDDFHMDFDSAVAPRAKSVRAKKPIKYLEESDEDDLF

inhibition [2] | SMILES | IC50 (A549 [1]) [µM] | IC50 (HCT-116) [µM] | IC50 (MDA-MB-435) [µM] | other results
Active | CC[C@]1(O)c2cc3n(c(=O)c2CO[C@H]1F)Cc1cc2cc(OC)ccc2nc1-3 | 41.7 | 6.15 | > 100 | –
Active | CC[C@]1(O)c2cc3n(c(=O)c2CO[C@H]1F)Cc1cc2c([N+](=O)[O-])cccc2nc1-3 | 11.3 | 1.02 | 53 | –
– | CCCc1c2c(nc3ccccc13)-c1cc3c(c(=O)n1C2)CO[C@@H](F)[C@]3(O)CC | 2.54 | 0.82 | 2.32 | –
– | CC[C@]1(O)c2cc3n(c(=O)c2CO[C@H]1F)Cc1c-3nc2ccccc2c1C1CC1 | 15.5 | 3.39 | 9.41 | –
– | CC[C@]1(O)c2cc3n(c(=O)c2CO[C@H]1F)Cc1c-3nc2ccccc2c1C(C)C | > 100 | 65.7 | 41.1 | –
– | CCc1c2c(nc3ccc(OC)cc13)-c1cc3c(c(=O)n1C2)CO[C@@H](F)[C@]3(O)CC | 6.35 | 1.45 | 12.7 | –
– | CC[C@]1(O)c2cc3n(c(=O)c2CO[C@H]1F)Cc1c-3nc2ccccc2c1C | 4.23 | 1.46 | 8.66 | –
– | CC[C@@]1(O)C(=O)OCc2c1cc1n(c2=O)Cc2cc3ccccc3nc2-1 [CAMPTOTHECIN] | 0.65 | 0.07 | < 0.001 | remaining at 6 h [13]: 42.7%
Active | CC[C@]1(O)c2cc3n(c(=O)c2CO[C@H]1F)Cc1cc2ccccc2nc1-3 [(20S,21S)-FLUOROCAMPTOTHECIN] | 9.95 | 6.35 | 58.3 | remaining at 6 h [13]: 96%
– | CC[C@]1(O)c2cc3n(c(=O)c2CO[C@H]1F)Cc1c-3nc2ccccc2c1C1CCC1 | 1 | 95.4 | 15.8 | –
– | CC[C@]1(O)c2cc3n(c(=O)c2CO[C@H]1F)Cc1c-3nc2ccccc2c1C1CCCC1 | 4.14 | 19.8 | 11.8 | –
Active | CCCCc1c2c(nc3ccccc13)-c1cc3c(c(=O)n1C2)CO[C@@H](F)[C@]3(O)CC | 17.7 | 0.27 | 3.53 | –
– | CCc1c2c(nc3ccccc13)-c1cc3c(c(=O)n1C2)CO[C@@H](F)[C@]3(O)CC | 12.7 | 8.53 | 10.9 | –
– | CC[C@@]1(O)C(=O)OCc2c1cc1n(c2=O)Cc2cc3c(CN(C)C)c(O)ccc3nc2-1 [TOPOTECAN] | – | – | – | Activity (Mus musculus): Toxic; TGI (A549 [14]): Active
Active | CC[C@]1(O)c2cc3n(c(=O)c2CO[C@@H]1F)Cc1cc2ccccc2nc1-3 [(20S,21R)-FLUOROCAMPTOTHECIN] | 46.2 | 50.9 | > 100 | –

SMILES | inhibition [2] | IC50 (A549 [1]) [µM] | IC50 (HCT-116) [µM] | IC50 (MDA-MB-435) [µM] | other results
CC[C@]1(O)c2cc3n(c(=O)c2CO[C@H]1F)Cc1c-3nc2ccccc2c1C1CCCCC1 [(20S,21S)-7-CYCLOHEXYLFLUOROCAMPTOTHECIN] | Active | 0.71 | 0.07 | 0.41 | inhibition [3]: inactive; Activity (A549 [4]): Active; Activity (A549 [5]): 94.11%; inhibition [6]: inactive; Activity (Mus musculus): Non-toxic; Activity (A549 [7]): Active; Stability [8]: Stable; inhibition in vivo at 4 mg/kg (A549 [9]): 63%; Activity (A549 [10]): Active; inhibition in vivo at 2 mg/kg (A549 [11]): 34%; TGI (A549 [12]): Dose-dependent effect
